Test results taken from PubChem BioAssay (NCI).
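These data come from cells grown in 96-well plates and exposed to compound for 48 hours at five concentrations. The concentration for 50% growth inhibition is given as GI50. Definition used: TGI = concentration required for complete inhibition of growth.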

Assays:
Test in all cases: NCI anticancer screen, dose series, 48 h
[1] = tested on: K-562 leukemia
[2] = tested on: U251 CNS
[3] = tested on: HOP-62 NSCLC
[4] = tested on: EKVX NSCLC
[5] = tested on: SK-MEL-5 melanoma
[6] = tested on: HT29 colon
[7] = tested on: RPMI-8226 leukemia
[8] = tested on: SF-539 CNS
[9] = tested on: 786-0 renal
[10] = tested on: M14 melanoma

Structure (SMILES): Nc1c(C(=O)c2ccccc2)sc2nc(-c3cccs3)ccc12
- GI50 [1]: 0.0467 µM
- TGI [1]: 20.5 µM
- GI50 [2]: 0.281 µM
- TGI [2]: 14.1 µM
- GI50 [3]: 0.276 µM
- TGI [3]: 17.8 µM
- GI50 [4]: 0.285 µM
- TGI [4]: 17.5 µM
- GI50 [5]: 0.292 µM
- TGI [5]: 3.13 µM
- GI50 [6]: 0.365 µM
- TGI [6]: 3.3 µM
- GI50 [7]: 0.513 µM
- TGI [7]: 17.6 µM
- GI50 [8]: 0.25 µM
- TGI [8]: 1.24 µM
- GI50 [9]: 0.725 µM
- TGI [9]: 7.67 µM
- GI50 [10]: 0.0924 µM
- TGI [10]: 13.3 µM

Structure (SMILES): Cc1nn(C(=O)c2ccccc2O)c2c1C(c1ccccc1)SC(N)=N2 (stereo not given)
- TGI [1]: 4.76 µM
- TGI [2]: > 10 µM
- TGI [3]: > 10 µM
- TGI [4]: > 10 µM
- TGI [5]: > 10 µM
- TGI [6]: > 10 µM
- TGI [7]: 6.05 µM
- TGI [8]: 0.621 µM
- TGI [9]: > 10 µM
- TGI [10]: > 10 µM

Structure (SMILES): COc1cc2c(cc1C)NC(=O)/C2=C\c1cc(OC)c(OC)c(OC)c1
- GI50 [1]: 23.2 µM
- TGI [1]: 70.1 µM
- GI50 [2]: 22.9 µM
- TGI [2]: > 100 µM
- GI50 [3]: 22.1 µM
- TGI [3]: 53.9 µM
- GI50 [4]: > 100 µM
- TGI [4]: > 100 µM
- GI50 [5]: > 100 µM
- TGI [5]: > 100 µM
- GI50 [6]: > 100 µM
- TGI [6]: > 100 µM
- GI50 [7]: > 100 µM
- TGI [7]: > 100 µM
- GI50 [8]: 48.4 µM
- TGI [8]: > 100 µM
- GI50 [9]: 32.4 µM
- TGI [9]: > 100 µM
- GI50 [10]: > 100 µM
- TGI [10]: > 100 µM

Structure (SMILES): CCN(CC)CCNc1c(OC)cc(C)c2sc3ccccc3c(=O)c12
- TGI [1]: 4.04 µM
- TGI [2]: 16 µM
- TGI [3]: 25 µM
- TGI [4]: 32.5 µM
- TGI [5]: 3.4 µM
- TGI [6]: 6.42 µM
- TGI [7]: 3.05 µM
- TGI [8]: 23 µM
- TGI [9]: 28.4 µM
- TGI [10]: 12.1 µM

Structure (SMILES): COc1cc([C@H](C)c2ccc3ccccc3c2)cc(OC)c1OC
- GI50 [1]: 0.0411 µM
- TGI [1]: > 100 µM
- GI50 [2]: 0.333 µM
- TGI [2]: 21.1 µM
- GI50 [3]: 0.578 µM
- TGI [3]: > 100 µM
- GI50 [4]: 0.941 µM
- TGI [4]: > 100 µM
- GI50 [5]: 0.26 µM
- TGI [5]: 11.1 µM
- GI50 [6]: 0.294 µM
- TGI [6]: > 100 µM
- GI50 [7]: 0.325 µM
- TGI [7]: 10.9 µM
- GI50 [8]: 0.297 µM
- TGI [8]: > 100 µM
- GI50 [9]: 0.536 µM
- TGI [9]: 20 µM
- GI50 [10]: 0.197 µM
- TGI [10]: > 100 µM

Structure (SMILES): COc1cc(-c2cnn(C)c2)ccc1Nc1ncc2ccnc(N[C@@H](C)C(C)(C)C)c2n1
- GI50 [1]: > 72.8 µM
- TGI [1]: > 100 µM
- GI50 [2]: > 55.8 µM
- TGI [2]: > 100 µM
- GI50 [3]: > 38.3 µM
- TGI [3]: > 100 µM
- GI50 [4]: > 100 µM
- TGI [4]: > 100 µM
- GI50 [5]: > 79 µM
- TGI [5]: > 100 µM
- GI50 [6]: > 50.6 µM
- TGI [6]: > 100 µM
- GI50 [7]: > 100 µM
- TGI [7]: > 100 µM
- GI50 [8]: > 57.3 µM
- TGI [8]: > 100 µM
- GI50 [9]: > 31.6 µM
- TGI [9]: > 100 µM
- GI50 [10]: > 63.8 µM
- TGI [10]: > 100 µM

Structure (SMILES): CC(=O)O[C@H]1C(N(C)C(=O)c2ccccc2)CC[C@]2(C)C3CC[C@@]4(C)C(CC(O)[C@@H]4C(C)N(C)C)[C@@H]3CCC12 (stereo not given in full)
- TGI [1]: > 100 µM
- TGI [2]: > 100 µM
- TGI [3]: > 100 µM
- TGI [4]: > 100 µM
- TGI [5]: > 100 µM
- TGI [6]: > 100 µM
- TGI [7]: > 100 µM
- TGI [8]: > 100 µM
- TGI [9]: > 100 µM
- TGI [10]: > 100 µM
